Test in all cases: Kinase selectivity, scanMAX Kinase assay panel (DiscoverX), % control at 1 uM
Common to all, as to format: binding

In test [1] the target is T1, scanMAX Kinase assay panel (Homo sapiens, UniProt P42336, M1043I).
T1 construct: purchased DiscoverX
The conditions noted are these: PIK3CA (M1043I); 1 uM; read-out: Percent Control (%). The method in brief: (§1)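 1 uM cpd (DMSO) per kinase; % ctrl = [cpd − pos ctrl]/[neg ctrl − pos ctrl] × 100; hit if <35.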

Test [2] deals with T2, scanMAX Kinase assay panel (Homo sapiens, UniProt P52333).
T2 construct: purchased DiscoverX
T2 sequence (P52333 1-1124): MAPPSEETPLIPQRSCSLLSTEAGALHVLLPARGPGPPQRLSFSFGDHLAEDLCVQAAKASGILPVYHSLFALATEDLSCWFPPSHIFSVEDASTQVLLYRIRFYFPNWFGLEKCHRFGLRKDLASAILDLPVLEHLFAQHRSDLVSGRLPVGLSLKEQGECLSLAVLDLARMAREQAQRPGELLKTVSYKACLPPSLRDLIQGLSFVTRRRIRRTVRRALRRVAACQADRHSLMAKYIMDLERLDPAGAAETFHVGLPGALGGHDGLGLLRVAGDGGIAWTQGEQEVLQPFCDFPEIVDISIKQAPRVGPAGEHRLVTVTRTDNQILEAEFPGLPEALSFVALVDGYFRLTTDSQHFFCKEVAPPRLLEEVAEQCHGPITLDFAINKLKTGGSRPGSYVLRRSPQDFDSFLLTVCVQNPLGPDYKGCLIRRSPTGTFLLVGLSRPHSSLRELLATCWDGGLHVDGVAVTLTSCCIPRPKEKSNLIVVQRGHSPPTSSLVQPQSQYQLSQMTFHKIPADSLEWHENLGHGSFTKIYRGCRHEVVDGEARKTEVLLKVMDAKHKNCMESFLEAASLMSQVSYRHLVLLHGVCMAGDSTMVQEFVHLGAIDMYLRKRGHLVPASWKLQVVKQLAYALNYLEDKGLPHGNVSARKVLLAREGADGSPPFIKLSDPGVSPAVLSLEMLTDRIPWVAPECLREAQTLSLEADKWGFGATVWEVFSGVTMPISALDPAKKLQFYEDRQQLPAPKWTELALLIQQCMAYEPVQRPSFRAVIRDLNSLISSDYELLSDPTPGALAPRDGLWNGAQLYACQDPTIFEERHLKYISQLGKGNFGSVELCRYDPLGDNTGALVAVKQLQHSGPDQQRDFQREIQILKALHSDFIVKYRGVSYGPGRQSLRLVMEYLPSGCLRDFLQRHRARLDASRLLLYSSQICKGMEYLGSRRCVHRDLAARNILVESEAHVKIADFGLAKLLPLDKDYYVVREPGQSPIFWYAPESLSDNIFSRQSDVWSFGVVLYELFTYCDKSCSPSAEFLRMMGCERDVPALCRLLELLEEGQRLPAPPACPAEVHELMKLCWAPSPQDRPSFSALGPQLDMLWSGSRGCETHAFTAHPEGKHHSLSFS
The conditions noted are these: JAK3 (JH1domain-catalytic); 1 uM; read-out: Percent Control (%). The method in brief:
as §1

For test [3], the target named is T3, scanMAX Kinase assay panel (Homo sapiens, UniProt P23443).
T3 construct: purchased DiscoverX
T3 sequence (P23443 whole entry): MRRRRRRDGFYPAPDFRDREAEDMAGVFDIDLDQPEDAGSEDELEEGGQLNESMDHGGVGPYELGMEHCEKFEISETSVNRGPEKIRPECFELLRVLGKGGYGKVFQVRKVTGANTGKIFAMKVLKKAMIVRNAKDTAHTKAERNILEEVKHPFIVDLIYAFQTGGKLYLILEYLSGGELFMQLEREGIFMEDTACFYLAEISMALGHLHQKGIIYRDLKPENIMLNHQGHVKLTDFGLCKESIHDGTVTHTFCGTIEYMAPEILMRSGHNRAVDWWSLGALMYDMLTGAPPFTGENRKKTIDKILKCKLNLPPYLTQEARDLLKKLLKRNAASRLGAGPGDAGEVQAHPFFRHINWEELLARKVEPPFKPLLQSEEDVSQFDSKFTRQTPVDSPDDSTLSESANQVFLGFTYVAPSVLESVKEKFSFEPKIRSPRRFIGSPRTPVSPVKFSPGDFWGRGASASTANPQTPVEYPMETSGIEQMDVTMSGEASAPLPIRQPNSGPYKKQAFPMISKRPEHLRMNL
To be noted: S6K1; 1 uM; read-out: Percent Control (%). The method in brief: as §1

Test [4] concerns the target T4, scanMAX Kinase assay panel (Homo sapiens, UniProt Q6ZN16).
T4 construct: purchased DiscoverX
T4 sequence (Q6ZN16 1-1313): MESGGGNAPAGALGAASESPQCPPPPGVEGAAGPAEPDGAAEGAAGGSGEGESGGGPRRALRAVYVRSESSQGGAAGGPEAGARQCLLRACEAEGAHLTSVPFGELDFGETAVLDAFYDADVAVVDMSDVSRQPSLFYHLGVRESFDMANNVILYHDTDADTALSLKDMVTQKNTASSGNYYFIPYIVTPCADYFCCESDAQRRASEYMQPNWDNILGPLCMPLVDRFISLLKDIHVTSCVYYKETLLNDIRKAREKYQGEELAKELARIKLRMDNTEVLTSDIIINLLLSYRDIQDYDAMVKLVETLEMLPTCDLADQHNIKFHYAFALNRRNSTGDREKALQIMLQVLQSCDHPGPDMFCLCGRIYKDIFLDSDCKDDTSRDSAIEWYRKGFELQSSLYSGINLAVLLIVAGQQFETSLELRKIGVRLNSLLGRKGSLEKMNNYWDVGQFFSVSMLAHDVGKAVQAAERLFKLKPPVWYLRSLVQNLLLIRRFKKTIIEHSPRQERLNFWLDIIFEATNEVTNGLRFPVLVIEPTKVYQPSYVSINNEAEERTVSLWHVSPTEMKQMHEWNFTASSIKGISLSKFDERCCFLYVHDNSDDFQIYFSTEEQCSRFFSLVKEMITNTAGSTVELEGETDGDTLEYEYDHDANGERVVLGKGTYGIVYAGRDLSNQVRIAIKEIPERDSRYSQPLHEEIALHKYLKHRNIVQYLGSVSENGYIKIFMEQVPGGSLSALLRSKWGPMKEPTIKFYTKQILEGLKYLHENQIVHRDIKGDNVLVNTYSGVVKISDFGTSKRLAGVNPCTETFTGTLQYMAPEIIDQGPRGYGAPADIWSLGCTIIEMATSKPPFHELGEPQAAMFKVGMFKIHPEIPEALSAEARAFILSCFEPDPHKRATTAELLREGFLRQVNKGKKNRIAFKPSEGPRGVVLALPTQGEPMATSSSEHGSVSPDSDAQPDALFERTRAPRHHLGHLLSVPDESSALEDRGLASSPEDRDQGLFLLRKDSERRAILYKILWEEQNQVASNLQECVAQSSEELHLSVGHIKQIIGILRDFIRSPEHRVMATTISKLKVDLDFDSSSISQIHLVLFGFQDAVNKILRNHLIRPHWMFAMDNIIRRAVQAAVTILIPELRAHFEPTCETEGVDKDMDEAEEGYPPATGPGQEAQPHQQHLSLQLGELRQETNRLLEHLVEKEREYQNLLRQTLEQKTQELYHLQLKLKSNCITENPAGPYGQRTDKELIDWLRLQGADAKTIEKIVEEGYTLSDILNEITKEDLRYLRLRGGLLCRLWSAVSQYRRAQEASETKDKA
To be noted: MAP3K15; 1 uM; read-out: Percent Control (%). An outline of the steps: as §1

The target in test [5] is T5, scanMAX Kinase assay panel (Homo sapiens, UniProt O75676).
T5 construct: purchased DiscoverX
T5 sequence (O75676 whole entry): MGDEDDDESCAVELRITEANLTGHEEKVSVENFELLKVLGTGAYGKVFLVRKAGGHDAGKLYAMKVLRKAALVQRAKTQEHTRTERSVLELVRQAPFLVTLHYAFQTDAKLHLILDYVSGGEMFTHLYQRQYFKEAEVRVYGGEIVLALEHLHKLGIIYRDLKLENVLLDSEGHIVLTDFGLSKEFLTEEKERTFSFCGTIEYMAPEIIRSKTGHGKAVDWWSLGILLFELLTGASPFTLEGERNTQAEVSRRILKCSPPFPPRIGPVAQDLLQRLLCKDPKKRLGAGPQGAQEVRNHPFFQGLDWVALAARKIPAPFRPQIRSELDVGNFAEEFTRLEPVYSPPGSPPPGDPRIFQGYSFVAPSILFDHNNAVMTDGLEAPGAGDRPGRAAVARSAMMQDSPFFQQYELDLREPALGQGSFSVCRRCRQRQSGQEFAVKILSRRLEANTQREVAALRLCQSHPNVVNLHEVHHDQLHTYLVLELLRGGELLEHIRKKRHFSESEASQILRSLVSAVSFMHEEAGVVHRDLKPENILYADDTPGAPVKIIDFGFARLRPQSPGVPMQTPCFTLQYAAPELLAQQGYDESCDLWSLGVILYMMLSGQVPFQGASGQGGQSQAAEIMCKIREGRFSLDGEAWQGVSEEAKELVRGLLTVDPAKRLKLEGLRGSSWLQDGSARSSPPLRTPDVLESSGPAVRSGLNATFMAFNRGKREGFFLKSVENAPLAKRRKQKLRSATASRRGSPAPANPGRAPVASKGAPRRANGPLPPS
To be noted: 1 uM, read-out: Percent Control (%). An outline of the steps:
as §1

The values below come from patent US10870647B2, “Imidazopyridine derivative, method for preparing same, and pharmaceutical composition containing same as active ingredient for preventing or treating cancer” (DAEGU-GYEONGBUK MEDICAL INNOVATION FOUNDATION, priority 2016, dated 2020).

Like-named read-outs stand apart in the source and are kept apart here.

T1 sequence (P42336 whole entry M1043I): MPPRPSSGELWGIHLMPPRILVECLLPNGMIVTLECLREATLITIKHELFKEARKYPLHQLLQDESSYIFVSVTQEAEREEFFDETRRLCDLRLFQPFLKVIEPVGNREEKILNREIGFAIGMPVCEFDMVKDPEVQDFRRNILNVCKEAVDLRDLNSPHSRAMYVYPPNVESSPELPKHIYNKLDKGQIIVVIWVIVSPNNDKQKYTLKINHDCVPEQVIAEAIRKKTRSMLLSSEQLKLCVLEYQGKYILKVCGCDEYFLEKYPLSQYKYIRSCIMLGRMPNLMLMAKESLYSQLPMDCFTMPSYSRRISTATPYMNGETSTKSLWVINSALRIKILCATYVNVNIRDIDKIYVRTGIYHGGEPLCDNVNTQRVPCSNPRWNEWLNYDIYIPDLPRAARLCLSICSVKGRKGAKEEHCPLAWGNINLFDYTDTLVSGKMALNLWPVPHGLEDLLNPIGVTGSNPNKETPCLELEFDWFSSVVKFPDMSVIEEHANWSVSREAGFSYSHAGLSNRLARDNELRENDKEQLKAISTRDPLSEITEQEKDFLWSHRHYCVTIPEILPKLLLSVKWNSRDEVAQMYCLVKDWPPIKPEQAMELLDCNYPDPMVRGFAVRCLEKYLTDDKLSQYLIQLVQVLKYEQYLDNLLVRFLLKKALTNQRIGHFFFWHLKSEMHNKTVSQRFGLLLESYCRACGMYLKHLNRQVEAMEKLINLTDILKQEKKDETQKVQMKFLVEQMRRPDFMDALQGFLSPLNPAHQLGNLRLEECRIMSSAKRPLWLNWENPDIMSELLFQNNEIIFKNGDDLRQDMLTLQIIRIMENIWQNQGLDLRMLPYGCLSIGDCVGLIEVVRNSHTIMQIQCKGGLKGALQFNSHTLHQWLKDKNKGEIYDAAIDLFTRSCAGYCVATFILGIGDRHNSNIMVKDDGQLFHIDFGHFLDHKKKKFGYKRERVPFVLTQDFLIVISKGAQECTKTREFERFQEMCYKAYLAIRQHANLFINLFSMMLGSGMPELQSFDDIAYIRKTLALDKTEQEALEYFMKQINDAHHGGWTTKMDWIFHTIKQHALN

Regarding `Cc1ccc(C(=O)Nc2ccc(CN3CCN(C)CC3)c(C(F)(F)F)c2)cc1C#Cc1cnc2c(Nc3cnn(C)c3)cccn12` [Example 1, 4-methyl-3-((8-((1-methyl-1H-pyrazol-4-yl)amino)imidazo[1,2-a]pyridin-3-yl)ethynyl)-N-(4-((4-methylpiperazin-1-yl)methyl)-3-(trifluoromethyl)phenyl)benzamide], the remaining binding at 1 µM amounted to 90% in test [1]; 1% in test [2]; 14% in test [3]; 72% in test [4]; 31% in test [5] (RPS6KA4 (Kin.Dom.1-N-terminal)); 94% in test [5] (RPS6KA4 (Kin.Dom.2-C-terminal)).
With `Cc1ccc(NC(=O)C2(C(=O)Nc3ccc(F)cc3)CC2)cc1C#Cc1cnc2c(Nc3cnn(C(C)C)c3)cccn12` [Example 78], the remaining binding at 1 µM in test [1] was found to be 100%; in test [2] it was 100%; in test [3], 100%; in test [4], 98%; in test [5] (RPS6KA4 (Kin.Dom.1-N-terminal)) it was 94%; in test [5] (RPS6KA4 (Kin.Dom.2-C-terminal)), 78%.
Take `Cc1cn(-c2cc(NC(=O)c3ccc(C)c(C#Cc4cnc5c(Nc6cnn(C)c6)cccn45)c3)cc(C(F)(F)F)c2)cn1` [Example 12, 4-methyl-N-(3-(4-methyl-1H-imidazol-1-yl)-5-(trifluoromethyl)phenyl)-3-((8-((1-methyl-1H-pyrazol-4-yl)amino)imidazo[1,2-a]pyridin-3-yl)ethynyl)benzamide]: the remaining binding at 1 µM in test [1] was found to be 100%; in test [2], 19%; in test [3], 100%; in test [4] it was 100%; in test [5] (RPS6KA4 (Kin.Dom.1-N-terminal)) it was 85%; in test [5] (RPS6KA4 (Kin.Dom.2-C-terminal)), 100%.
